According to patent publication US20060116390A1, “Hepatitis c virus inhibitors” (priority 2003, published 2006):
Read-outs that look alike come from different tables or passages of the source.

Test system: HCV proteins in Rep5.1 cells (replicon cell line)
Test: Inhibitory activity of HCV: cell-based ELISA in replicon cell line Rep5.1 (decrease of HCV proteins)
Parameters: species or system hepatitis C virus
Conditions: Rep5.1 cells, 72 hours with drug
In short: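 Rep5.1 replicon cells (5000/well, DMEM-10 with 500 μg/ml G418) were given serially diluted drug 4 h after seeding. After 72 h, cells were fixed in methanol/acetone and HCV proteins detected by cell-based ELISA using replicon-specific patient plasma antibodies. IC50 is the concentration giving 50% protein decrease versus the no-drug control.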

[1] = Hepatitis C virus, 72 h, concentration at which 50% of HCV proteins was decreased, Table 2, read-out: IC50
[2] = Hepatitis C virus, 72 h, decrease of HCV proteins measured by HCV antibody, Table 1, read-out: Level (IC50 values classified)

Question: With CC1=C(C(=O)OCCc2cc(F)cc(F)c2)C(CO)NC(=S)N1 (centres unmarked) [57″, 4-hydroxymethyl-6-methyl-2-thioxo-1,2,3,4-tetrahydro-pyrimidine-5-carboxylic acid 2-(3,5-difluoro-phenyl)-ethyl ester] as the compound, how does the IC50 [1] read?
Answer: The IC50 was 6400 nM.

Question: And the IC50 [2]?
Answer: Its IC50 is 1000 to 10000 nM.

Question: What does the source list for CC1=C(C(=O)OCCc2ccsc2)CNC(=S)N1 [Compound 208, 6-methyl-2-thioxo-1,2,3,4-tetrahydro-pyrimidine-5-carboxylic acid 2-thiophen-3-yl-ethyl ester]?
Answer: IC50 [1]: < 400 nM; IC50 [2]: < 1000 nM

Question: Which IC50 [1] does the source give for CC1=C(C(=O)OCCc2ccc(C)cc2)CNC(=S)N1 [Compound 173, 6-methyl-2-thioxo-1,2,3,4-tetrahydro-pyrimidine-5-carboxylic acid 2-p-tolyl-ethyl ester] here?
Answer: Its IC50 is under 400 nM.

Question: CC1=C(C(=O)OCc2cc(Cl)ccc2[N+](=O)[O-])C(CF)NC(=S)N1 (centres unmarked) [78′, 4-fluoromethyl-6-methyl-2-thioxo-1,2,3,4-tetrahydro-pyrimidine-5-carboxylic acid 5-chloro-2-nitro-benzyl ester] was tested. Which IC50 [1] did it give?
Answer: Its IC50 is 11000 nM.

Question: What about the IC50 [2] of the same compound?
Answer: Its IC50 is 10000 to 20000 nM.

Question: CC1=C(C(=O)OCc2cccc(Cl)c2)CNC(=S)N1 [Compound 91, 6-methyl-2-thioxo-1,2,3,4-tetrahydro-pyrimidine-5-carboxylic acid 3-chloro-benzyl ester] was tested. Which IC50 [1] did it give?
Answer: Its IC50 is under 400 nM.

Question: And the IC50 [2]?
Answer: The IC50 was under 1000 nM.

Question: With CC1=C(C(=O)OCCc2ccc(N3CCCC3)c([N+](=O)[O-])c2)C(CO)NC(=S)N1 (centres unmarked) [99″, 4-Hydroxymethyl-6-methyl-2-thioxo-1,2,3,4-tetrahydro-pyrimidine-5-carboxylic acid 2-(3-nitro-4-pyrrolidin-1-yl-phenyl)-ethyl ester] as the compound, how does the IC50 [1] read?
Answer: Its IC50 is 1000 nM.

Question: And the IC50 [2]?
Answer: The IC50 was under 1000 nM.

Question: CC1=C(C(=O)OCc2ccc(OC(=O)OC(C)(C)C)cc2)CNC(=S)N1 [Compound 228, 6-methyl-2-thioxo-1,2,3,4-tetrahydro-pyrimidine-5-carboxylic acid 4-t-butoxycarbonyloxy-benzyl ester] was tested. Which IC50 [1] did it give?
Answer: The IC50 was 23000 nM.

Question: What about the IC50 [2] of the same compound?
Answer: Its IC50 is 10000 to 20000 nM.

Question: How did the IC50 [1] turn out when CC1=C(C(=O)OCCSc2nc3ccccc3s2)CNC(=S)N1 [Compound 224, 6-methyl-2-thioxo-1,2,3,4-tetrahydro-pyrimidine-5-carboxylic acid 2-(benzothiazol-2-ylsulfanyl)-ethyl ester] was run?
Answer: Its IC50 is 700 nM.

Question: What about the IC50 [2] of the same compound?
Answer: The IC50 was under 1000 nM.

Question: Which results are given for CC1=C(C(=O)OCCc2ccsc2)C2(CCC2)NC(=S)N1 [7′, 8-methyl-6-thioxo-5,7-diaza-spiro[3,5]non-8-en-9-carboxylic acid 2-thiophen-3-yl-ethyl ester]?
Answer: IC50 [1]: 8000 nM; IC50 [2]: 1000 to 10000 nM

Question: Which IC50 [1] does the source give for CC1=C(C(=O)OCc2nc3ccccc3o2)CNC(=S)N1 [Compound 238, 6-methyl-2-thioxo-1,2,3,4-tetrahydro-pyrimidine-5-carboxylic acid benzoxazol-2-ylmethyl ester] here?
Answer: Its IC50 is 3000 nM.

Question: And the IC50 [2]?
Answer: The IC50 was 1000 to 10000 nM.

Question: Which IC50 [1] does the source give for CCCCC(C)OC(=O)C1=C(C)NC(=S)NC1 (centres unmarked) [Compound 39, 6-methyl-2-thioxo-1,2,3,4-tetrahydro-pyrimidine-5-carboxylic acid 1-methyl-pentyl ester] here?
Answer: The IC50 was 500 nM.

Question: What about the IC50 [2] of the same compound?
Answer: The IC50 was under 1000 nM.

Question: With CC1=C(C(=O)OCCc2cccc(Cl)c2)C(CO)NC(=S)N1 (centres unmarked) [31″, 4-hydroxymethyl-6-methyl-2-thioxo-1,2,3,4-tetrahydro-pyrimidine-5-carboxylic acid 2-(3-chloro-phenyl)-ethyl ester] as the compound, how does the IC50 [1] read?
Answer: The IC50 was 1000 nM.

Question: And the IC50 [2]?
Answer: Its IC50 is under 1000 nM.

Question: For CCCN(CC)c1ccc(CCOC(=O)C2=C(C)NC(=S)NC2CO)cc1[N+](=O)[O-] (centres unmarked) [92″, 4-Hydroxymethyl-6-methyl-2-thioxo-1,2,3,4-tetrahydro-pyrimidine-5-carboxylic acid 2-[4-(ethyl-propylamino)-3-nitro-phenyl]-ethyl ester], which IC50 [1] is on record?
Answer: The IC50 was 400 nM.

Question: What about the IC50 [2] of the same compound?
Answer: Its IC50 is under 1000 nM.

Question: CCN(CCOC(=O)C1=C(C)NC(=S)NC1)c1cccc(C)c1 [Compound 59, 6-methyl-2-thioxo-1,2,3,4-tetrahydro-pyrimidine-5-carboxylic acid 2-(ethyl-m-tolyl-amino)-ethyl ester] was tested. Which IC50 [1] did it give?
Answer: The IC50 was 3000 nM.

Question: What about the IC50 [2] of the same compound?
Answer: Its IC50 is 1000 to 10000 nM.

Question: With CC1=C(C(=O)OCc2nc3ccccc3n2C)CNC(=S)N1 [Compound 241, 6-methyl-2-thioxo-1,2,3,4-tetrahydro-pyrimidine-5-carboxylic acid 1-methyl-1H-benzoimidazol-2-ylmethyl ester] as the compound, how does the IC50 [1] read?
Answer: The IC50 was 97000 nM.

Question: And the IC50 [2]?
Answer: The IC50 was over 20000 nM.

Question: Which IC50 [1] does the source give for CC1=C(C(=O)OCCc2cccc(Cl)c2)C(COC(=O)OCC2COC(=O)O2)NC(=S)N1 (centres unmarked) [88″, 6-methyl-4-(2-oxo-[1,3]dioxolan-4-ylmethoxycarbonyloxymethyl)-2-thioxo-1,2,3,4-tetrahydro-pyrimidine-5-carboxylic acid 2-(3-chloro-phenyl)-ethyl ester] here?
Answer: The IC50 was 900 nM.

Question: And the IC50 [2]?
Answer: The IC50 was under 1000 nM.

Question: CC1=C(C(=O)OCc2cccc(C(F)(F)F)c2)CNC(=S)N1 [Compound 101, 6-methyl-2-thioxo-1,2,3,4-tetrahydro-pyrimidine-5-carboxylic acid 3-trifluoromethyl-benzyl ester] was tested. Which IC50 [1] did it give?
Answer: The IC50 was under 400 nM.

Question: And the IC50 [2]?
Answer: The IC50 was under 1000 nM.

Question: Which IC50 [1] does the source give for CC1=C(C(=O)OC(c2ccccc2)c2ccccc2C)CNC(=S)N1 (centres unmarked) [Compound 57, 6-methyl-2-thioxo-1,2,3,4-tetrahydro-pyrimidine-5-carboxylic acid phenyl-o-tolyl-methyl ester] here?
Answer: The IC50 was 3500 nM.

Question: What about the IC50 [2] of the same compound?
Answer: The IC50 was 1000 to 10000 nM.

Question: Which results are given for CC1=C(C(=O)OCc2cc(Cl)ccc2[N+](=O)[O-])CNC(=S)N1 [Compound 143, 6-methyl-2-thioxo-1,2,3,4-tetrahydro-pyrimidine-5-carboxylic acid 5-chloro-2-nitro-benzyl ester]?
Answer: IC50 [1]: 400 nM; IC50 [2]: < 1000 nM

Question: Which results are given for CC1=C(C(=O)OCc2ccccc2)C(CF)NC(=S)N1 (centres unmarked) [Compound 211, 4-fluoromethyl-6-methyl-2-thioxo-1,2,3,4-tetrahydro-pyrimidine-5-carboxylic acid benzyl ester]?
Answer: IC50 [1]: 16000 nM; IC50 [2]: 10000 to 20000 nM

Question: How did the IC50 [1] turn out when COc1ccc(Br)cc1COC(=O)C1=C(C)NC(=S)NC1 [Compound 185, 6-methyl-2-thioxo-1,2,3,4-tetrahydro-pyrimidine-5-carboxylic acid 5-bromo-2-methoxy-benzyl ester] was run?
Answer: Its IC50 is 400 nM.

Question: And the IC50 [2]?
Answer: Its IC50 is under 1000 nM.

Question: For CC1=C(C(=O)OCCCCc2ccsc2)C(CO)NC(=S)N1 (centres unmarked) [25″, 4-hydroxymethyl-6-methyl-2-thioxo-1,2,3,4-tetrahydro-pyrimidine-5-carboxylic acid 4-thiophen-3-yl-butyl ester], which IC50 [1] is on record?
Answer: Its IC50 is 2000 nM.

Question: And the IC50 [2]?
Answer: The IC50 was 1000 to 10000 nM.

Question: What does the source list for O=C(OCc1ccccc1)C1=C(c2cccc3ccccc23)NC(=S)NC1 [Compound 17, 6-naphthalen-1-yl-2-thioxo-1,2,3,4-tetrahydro-pyrimidine-5-carboxylic acid benzyl ester]?
Answer: IC50 [1]: 100000 nM; IC50 [2]: > 20000 nM

Question: With CC1=C(C(=O)OCC=Cc2ccco2)CNC(=S)N1 [Compound 251, 6-methyl-2-thioxo-1,2,3,4-tetrahydro-pyrimidine-5-carboxylic acid 3-furan-2-allyl ester] as the compound, how does the IC50 (concentration at which 50% of HCV proteins was decreased, Table 2, read-out: IC50) read?
Answer: Its IC50 is 1600 nM.

Question: Which IC50 [1] does the source give for COc1ccc(CCCOC(=O)C2=C(C)NC(=S)NC2)cc1 [Compound 88, 6-methyl-2-thioxo-1,2,3,4-tetrahydro-pyrimidine-5-carboxylic acid 3-(4-methoxy-phenyl)-propyl ester] here?
Answer: The IC50 was 700 nM.

Question: What about the IC50 [2] of the same compound?
Answer: Its IC50 is under 1000 nM.

Question: Which IC50 [1] does the source give for CC1=C(C(=O)OC2CCc3c(Cl)sc(Cl)c32)CNC(=S)N1 (centres unmarked) [12′, 6-methyl-2-thioxo-1,2,3,4-tetrahydro-pyrimidine-5-carboxylic acid 1,3-dichloro-5,6-dihydro-4H-cyclopenta[c]thiophen-4-yl ester] here?
Answer: Its IC50 is under 400 nM.

Question: What about the IC50 [2] of the same compound?
Answer: Its IC50 is under 1000 nM.
